Tests used:
[1] = tested on: Oryza sativa, (L.) Tebonnet; assay: Rice tolerance to post-transplant applications under flooded paddy conditions (Example 187), ORYSAT (Rice, Tebonnet); on herbicidal effect rating ORYSAT: meaning of each grade not given here
[2] = tested on: Echinochloa oryzoides (Ard.) Fritsch.; assay: Preemergence weed control under flooded paddy conditions, ECHORC (Watergrass (Calif.)); type: in vivo; settings: flooded paddy; on herbicidal effect rating, ECHORC: meaning of each grade not given here
[3] = tested on: Cyperus iria; assay: Preemergence weed control under flooded paddy conditions, CYPIR (Rice Flatsedge); type: in vivo; settings: flooded paddy; on herbicidal effect rating, CYPIR: meaning of each grade not given here
[4] = tested on: Monochoria vaginalis, Presl.; assay: Preemergence weed control under flooded paddy conditions, MOOVA (Monochoria); type: in vivo; settings: flooded paddy; on herbicidal effect rating, MOOVA: meaning of each grade not given here
[5] = tested on: Sagittaria pygmaea, L.; assay: Preemergence weed control under flooded paddy conditions, SAGPY (Arrowhead (Pygmaea)); type: in vivo; settings: flooded paddy; on herbicidal effect rating, SAGPY: meaning of each grade not given here
[6] = tested on: Cyperus serotinus, Rottb.; assay: Preemergence weed control under flooded paddy conditions, CYPSE (Flatsedge); type: in vivo; on herbicidal effect rating, CYPSE: meaning of each grade not given here
[7] = Rate 0.1250 kg/ha, rated three to four weeks after treatment
[8] = Rate 0.2500 kg/ha, rated three to four weeks after treatment
[9] = Rate 0.0313 kg/ha, preemergence, rated three to four weeks after treatment
[10] = Rate 0.0625 kg/ha, preemergence, rated three to four weeks after treatment
[11] = Rate 0.1250 kg/ha, preemergence, rated three to four weeks after treatment
[12] = Rate 0.2500 kg/ha, preemergence, rated three to four weeks after treatment
[13] = Rate 0.0320 kg/ha, rated three to four weeks after treatment
[14] = Rate 0.0620 kg/ha, rated three to four weeks after treatment
[15] = Rate 0.0320 kg/ha, preemergence, rated three to four weeks after treatment
[16] = Rate 0.0620 kg/ha, preemergence, rated three to four weeks after treatment
[17] = 0.0320 kg/ha, preemergence, rated three to four weeks after treatment
[18] = 0.0620 kg/ha, preemergence, rated three to four weeks after treatment
[19] = 0.1250 kg/ha, preemergence, rated three to four weeks after treatment
[20] = 0.2500 kg/ha, preemergence, rated three to four weeks after treatment
[21] = Rate 0.0320 kg/ha, preemergence, rated 3-4 weeks after treatment
[22] = Rate 0.0620 kg/ha, preemergence, rated 3-4 weeks after treatment
[23] = Rate 0.1250 kg/ha, preemergence, rated 3-4 weeks after treatment
[24] = Rate 0.2500 kg/ha, preemergence, rated 3-4 weeks after treatment
[25] = Rate 0.0320 kg/ha, preemergence weeds, rated three to four weeks after treatment
[26] = Rate 0.0620 kg/ha, preemergence weeds, rated three to four weeks after treatment
[27] = Rate 0.1250 kg/ha, preemergence weeds, rated three to four weeks after treatment
[28] = Rate 0.2500 kg/ha, preemergence weeds, rated three to four weeks after treatment

C=C(C)C1CC=C(COCc2nsc3ccc(-n4c(=O)ccn(C)c4=O)cc23)CC1 (stereo not shown) [Example 211, 1-Methyl-3-{3-{{[4-(1-methylvinyl)-1-cyclohexen-1-yl]methoxy}methyl}-1,2-benzisothiazol-5-yl}-2,4(1H,3H)-pyrimidinedione]
3.0: ORYSAT herbicidal effect rating [1, 8]
9.0: ECHORC herbicidal effect rating [2, 12] | MOOVA herbicidal effect rating [4, 9] | MOOVA herbicidal effect rating [4, 10] | MOOVA herbicidal effect rating [4, 11] | MOOVA herbicidal effect rating [4, 12]
7.0: ECHORC herbicidal effect rating [2, 11]
2.0: ORYSAT herbicidal effect rating ([1]; Rate 0.0313 kg/ha, rated three to four weeks after treatment) | ORYSAT herbicidal effect rating ([1]; Rate 0.0625 kg/ha, rated three to four weeks after treatment) | ORYSAT herbicidal effect rating [1, 7] | ECHORC herbicidal effect rating [2, 9]
0.0: CYPIR herbicidal effect rating [3, 9] | CYPIR herbicidal effect rating [3, 10] | SAGPY herbicidal effect rating [5, 9] | SAGPY herbicidal effect rating [5, 10] | SAGPY herbicidal effect rating [5, 11] | SAGPY herbicidal effect rating [5, 12] | CYPSE herbicidal effect rating [6, 9] | CYPSE herbicidal effect rating [6, 10] | CYPSE herbicidal effect rating [6, 11] | CYPSE herbicidal effect rating [6, 12]
4.0: ECHORC herbicidal effect rating [2, 10] | CYPIR herbicidal effect rating [3, 11] | CYPIR herbicidal effect rating [3, 12]

Cc1ccc(C=C(C#N)c2nsc3ccc(-n4c(=O)cc(C(F)(F)F)n(C)c4=O)cc23)cc1 [Example 597, 1,2-Benzisothiazole-3-acetonitrile, 5-[3,6-dihydro-3-methyl-2,6-dioxo-4-(trifluoromethyl)-1(2H)-pyrimidinyl]-alpha-(p-methylbenzylidene)-]
4.0: herbicidal effect rating, ECHORC [2, 15] | herbicidal effect rating, MOOVA [4, 16] | herbicidal effect rating, MOOVA [4, 12]
6.0: herbicidal effect rating, ECHORC [2, 16]
0.0: herbicidal effect rating ORYSAT [1, 13] | herbicidal effect rating ORYSAT [1, 14] | herbicidal effect rating ORYSAT [1, 7] | herbicidal effect rating ORYSAT [1, 8] | herbicidal effect rating, CYPIR [3, 15] | herbicidal effect rating, CYPIR [3, 16] | herbicidal effect rating, CYPIR [3, 11] | herbicidal effect rating, CYPIR [3, 12] | herbicidal effect rating, SAGPY [5, 15] | herbicidal effect rating, SAGPY [5, 16] | herbicidal effect rating, SAGPY [5, 11] | herbicidal effect rating, SAGPY [5, 12] | herbicidal effect rating, CYPSE [6, 15] | herbicidal effect rating, CYPSE [6, 16] | herbicidal effect rating, CYPSE [6, 11] | herbicidal effect rating, CYPSE [6, 12]
7.0: herbicidal effect rating, ECHORC [2, 11]
9.0: herbicidal effect rating, ECHORC [2, 12]

CSCOCc1nsc2ccc(-n3c(=O)cc(C(F)(F)F)n(C)c3=O)cc12 [Example 484, 2,4(1H,3H)-Pyrimidinedione, 1-methyl-3-{3-{[(methylthio)methoxy]methyl}-1,2-benzisothiazol-5-yl}-6-(trifluoromethyl)-]
6.0: ORYSAT herbicidal rating (rice tolerance) ([1]; 0.1250 kg/ha, rated three to four weeks after treatment) | ORYSAT herbicidal rating (rice tolerance) ([1]; 0.2500 kg/ha, rated three to four weeks after treatment) | CYPIR herbicidal rating [3, 19]
5.0: ORYSAT herbicidal rating (rice tolerance) ([1]; 0.0320 kg/ha, rated three to four weeks after treatment) | ORYSAT herbicidal rating (rice tolerance) ([1]; 0.0620 kg/ha, rated three to four weeks after treatment) | ECHORC herbicidal rating [2, 17] | SAGPY herbicidal rating [5, 17]
9.0: ECHORC herbicidal rating [2, 20] | CYPIR herbicidal rating [3, 20] | MOOVA herbicidal rating [4, 18] | MOOVA herbicidal rating [4, 19] | MOOVA herbicidal rating [4, 20]
7.0: ECHORC herbicidal rating [2, 19] | MOOVA herbicidal rating [4, 17]
0.0: CYPSE herbicidal rating [6, 17]
4.0: ECHORC herbicidal rating [2, 18] | CYPIR herbicidal rating [3, 17] | CYPIR herbicidal rating [3, 18]

CC#CCOC(=O)c1nsc2ccc(-n3c(=O)cc(C(F)(F)F)n(C)c3=O)cc12 [Example 384, 1,2-Benzisothiazole-3-carboxylic acid, 5-[3,6-dihydro-3-methyl-2,6-dioxo-4-(trifluoromethyl)-1(2H)-pyrimidinyl]-, 2-butynyl ester]
8.0: herbicidal effect rating, CYPIR [3, 11] | herbicidal effect rating, CYPIR [3, 12]
7.0: herbicidal effect rating ORYSAT [1, 7] | herbicidal effect rating, CYPIR [3, 16] | herbicidal effect rating, CYPSE [6, 15] | herbicidal effect rating, CYPSE [6, 16] | herbicidal effect rating, CYPSE [6, 11] | herbicidal effect rating, CYPSE [6, 12]
5.0: herbicidal effect rating, SAGPY [5, 15]
2.0: herbicidal effect rating, ECHORC [2, 15]
4.0: herbicidal effect rating ORYSAT [1, 13] | herbicidal effect rating ORYSAT [1, 14] | herbicidal effect rating, ECHORC [2, 16] | herbicidal effect rating, ECHORC [2, 11] | herbicidal effect rating, CYPIR [3, 15]
9.0: herbicidal effect rating, MOOVA [4, 15] | herbicidal effect rating, MOOVA [4, 16] | herbicidal effect rating, MOOVA [4, 11] | herbicidal effect rating, MOOVA [4, 12]
6.0: herbicidal effect rating ORYSAT [1, 8] | herbicidal effect rating, ECHORC [2, 12] | herbicidal effect rating, SAGPY [5, 16] | herbicidal effect rating, SAGPY [5, 11] | herbicidal effect rating, SAGPY [5, 12]

C=CCOC(=O)C(C)(C)Oc1ccc(C)cc1-c1nsc2ccc(-n3c(=O)cc(C(F)(F)F)n(C)c3=O)cc12 [Example 530, Propionic acid, 2-{{2-{5-[3,6-dihydro-3-methyl-2,6-dioxo-4-(trifluoromethyl)-1(2H)-pyrimidinyl]-1,2-benzisothiazol-3-yl}-p-tolyl}oxy}-2-methyl-, allyl ester]
9.0: herbicidal effect rating ORYSAT ([1]; Rate 0.2500 kg/ha, rated 3-4 weeks after treatment) | herbicidal effect rating, ECHORC [2, 21] | herbicidal effect rating, ECHORC [2, 22] | herbicidal effect rating, ECHORC [2, 23] | herbicidal effect rating, ECHORC [2, 24] | herbicidal effect rating, CYPIR [3, 22] | herbicidal effect rating, CYPIR [3, 23] | herbicidal effect rating, CYPIR [3, 24] | herbicidal effect rating, MOOVA [4, 21] | herbicidal effect rating, MOOVA [4, 22] | herbicidal effect rating, MOOVA [4, 23] | herbicidal effect rating, MOOVA [4, 24] | herbicidal effect rating, SAGPY [5, 24]
0.0: herbicidal effect rating ORYSAT ([1]; Rate 0.0320 kg/ha, rated 3-4 weeks after treatment) | herbicidal effect rating ORYSAT ([1]; Rate 0.0620 kg/ha, rated 3-4 weeks after treatment) | herbicidal effect rating, CYPIR [3, 21] | herbicidal effect rating, SAGPY [5, 21] | herbicidal effect rating, SAGPY [5, 22] | herbicidal effect rating, CYPSE [6, 21] | herbicidal effect rating, CYPSE [6, 22] | herbicidal effect rating, CYPSE [6, 23] | herbicidal effect rating, CYPSE [6, 24]
3.0: herbicidal effect rating ORYSAT ([1]; Rate 0.1250 kg/ha, rated 3-4 weeks after treatment) | herbicidal effect rating, SAGPY [5, 23]

Cc1ccc(OCC(=O)NO)c(-c2nsc3ccc(-n4c(=O)cc(C(F)(F)F)n(C)c4=O)cc23)c1 [Example 313, Acetohydroxamic acid, 2-{{2-{5-[3,6-dihydro-3-methyl-2,6-dioxo-4-(trifluoromethyl)-1(2H)-pyrimidinyl]-1,2-benzisothiazol-3-yl}-p-tolyl}oxy}-]
9.0: herbicidal effect rating, ECHORC [2, 28] | herbicidal effect rating, CYPIR [3, 27] | herbicidal effect rating, CYPIR [3, 28] | herbicidal effect rating, MOOVA [4, 26] | herbicidal effect rating, MOOVA [4, 27] | herbicidal effect rating, MOOVA [4, 28]
0.0: herbicidal effect rating ORYSAT [1, 13] | herbicidal effect rating, CYPIR [3, 25] | herbicidal effect rating, CYPIR [3, 26] | herbicidal effect rating, MOOVA [4, 25] | herbicidal effect rating, SAGPY [5, 25] | herbicidal effect rating, SAGPY [5, 26] | herbicidal effect rating, SAGPY [5, 27] | herbicidal effect rating, CYPSE [6, 25] | herbicidal effect rating, CYPSE [6, 26] | herbicidal effect rating, CYPSE [6, 27]
6.0: herbicidal effect rating, ECHORC [2, 27]
2.0: herbicidal effect rating, CYPSE [6, 28]
5.0: herbicidal effect rating, ECHORC [2, 26]
4.0: herbicidal effect rating ORYSAT [1, 8] | herbicidal effect rating, ECHORC [2, 25]
3.0: herbicidal effect rating ORYSAT [1, 7] | herbicidal effect rating, SAGPY [5, 28]
1.0: herbicidal effect rating ORYSAT [1, 14]

From EP0908457B1, “3-(1,2-benzisothiazol- and isoxazol-5-Y1)-2,4(1H,3H)-pyrimidinedione or thione and 3-(1,2-benzisothiazol- and isoxazol-5-y1)-4(3H)-pyrimidinone or thione herbicidal agents” (BASF AKTIENGESELLSCHAFT, priority 1997, dated 1999)
